According to patent publication US9512107B2, “Therapeutically active compositions and their methods of use” (Agios Pharmaceuticals, Inc., priority 2012, dated 2016):
Where a chain is given by its changes, count along the chain named.

Tests used:
IDH2 R172K = target: T1, IDH2 R172K (Homo sapiens, UniProt P48735, R172K); assay: IDH2 R172K enzymatic assay (NADPH cofactor depletion, diaphorase/resazurin readout); format: biochemical; conditions: read-out: Enz R172K
T1 sequence (P48735 40-452 R172K): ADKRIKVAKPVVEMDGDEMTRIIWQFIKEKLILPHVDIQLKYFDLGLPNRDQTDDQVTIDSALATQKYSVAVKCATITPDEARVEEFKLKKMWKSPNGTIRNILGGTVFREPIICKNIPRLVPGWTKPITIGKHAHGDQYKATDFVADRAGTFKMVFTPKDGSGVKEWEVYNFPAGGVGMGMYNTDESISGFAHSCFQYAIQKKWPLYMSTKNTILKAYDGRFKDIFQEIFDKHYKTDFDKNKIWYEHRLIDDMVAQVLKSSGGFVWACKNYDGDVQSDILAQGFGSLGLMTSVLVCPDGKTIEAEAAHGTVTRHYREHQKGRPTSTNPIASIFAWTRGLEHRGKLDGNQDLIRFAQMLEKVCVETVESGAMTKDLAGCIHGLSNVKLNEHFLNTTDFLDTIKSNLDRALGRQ
Summary of the method: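 Cofactor depletion format: enzyme + compound 1 h RT; add substrate mix (50 μM NADPH, 6.3 mM α-KG); react 1 h RT; quench with stop mix (36 μg/ml diaphorase, 60 μM resazurin); read resorufin fluorescence as residual NADPH.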

IDH2 R140Q = target: T2, IDH2 R140Q (Homo sapiens, UniProt P48735, R140Q); assay: IDH2 R140Q enzymatic assay (cofactor depletion, similar format); format: biochemical; conditions: read-out: Enz R140Q
T2 sequence (P48735 40-452 R140Q): T1 sequence (P48735 40-452 R172K) with R101Q, K133R

[1] = system: U87MG pLVX-IDH2 R140Q-neo cells; assay: U87MG pLVX-IDH2 R140Q-neo cell based assay, 2-HG in media by LC-MS at 48 hours; conditions: Homo sapiens, U-87 MG
Summary of the method: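 2-HG secreted into the medium was measured by LC-MS after 48 h of compound treatment (0.2% DMSO final) of U87MG pLVX-IDH2 R140Q-neo cells in DMEM/10% FBS. The same wells were assayed at 72 h by CellTiter-Glo luminescence for effects on growth.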

Row | Structure (SMILES) | IC50 (IDH2 R172K) [nM] | IC50 (IDH2 R140Q) [nM] | IC50 [1] [nM]
1 | CC(C)(C)Nc1nc(Nc2cc(Cl)cc(S(C)(=O)=O)c2)nc(-c2cccc(C(F)(F)F)n2)n1 [Compound 600, N2-(tert-butyl)-N4-(3-chloro-5-(methylsulfonyl)phenyl)-6-(6-(trifluoromethyl)pyridin-2-yl)-1,3,5-triazine-2,4-diamine] | < 100 | 100 to 1000 | < 100
2 | Fc1cncc(Nc2nc(NC3COC3)nc(-c3ccccc3F)n2)c1 [Compound 625, 6-(2-Fluoro-phenyl)-N-(5-fluoro-pyridin-3-yl)-N′-oxetan-3-yl-[1,3,5]triazine-2,4-diamine] | 100 to 1000 | < 100 | < 100
3 | CC(C)Nc1nc(Nc2ccnc(C(C)(C)O)c2)nc(-c2cccc(C(F)(F)F)n2)n1 [Compound 496, 2-{4-[4-Isopropylamino-6-(6-trifluoromethyl-pyridin-2-yl)-[1,3,5]triazin-2-ylamino]-pyridin-2-yl}-propan-2-ol] | < 100 | 100 to 1000 | < 100
4 | FC(F)(F)c1cc(Nc2nc(Nc3cncs3)nc(-c3cccc(C(F)(F)F)n3)n2)ccn1 [Compound 546, N2-(thiazol-5-yl)-6-(6-(trifluoromethyl)pyridin-2-yl)-N4-(2-(trifluoromethyl)pyridin-4-yl)-1,3,5-triazine-2,4-diamine] | 100 to 1000 | 100 to 1000 | < 100
5 | CC(C)Nc1nc(Nc2ccnc(CC#N)c2)nc(-c2cccc(C(F)(F)F)n2)n1 [Compound 672, {4-[4-Isopropylamino-6-(6-trifluoromethyl-pyridin-2-yl)-[1,3,5]triazin-2-ylamino]-pyridin-2-yl}-acetonitrile] | 100 to 1000 | 100 to 1000 | < 100
6 | CC1(Nc2nc(Nc3ccnc(C(F)(F)F)c3)nc(-c3cccc(N)n3)n2)CC1 [Compound 692, 6-(6-aminopyridin-2-yl)-N2-(1-methylcyclopropyl)-N4-(2-(trifluoromethyl)pyridin-4-yl)-1,3,5-triazine-2,4-diamine] | < 100 | 100 to 1000 | < 100
7 | CC(C)Nc1nc(Nc2ccnc(Cl)c2)nc(-c2cccc(C(F)(F)F)n2)n1 [Compound 572, N2-(2-chloropyridin-4-yl)-N4-isopropyl-6-(6-(trifluoromethyl)pyridin-2-yl)-1,3,5-triazine-2,4-diamine] | 100 to 1000 | 100 to 1000 | < 100
8 | Cc1nc(-c2nc(Nc3cccc(F)c3)nc(NC(C)C)n2)co1 [Compound 471, N-(3-Fluoro-phenyl)-N′-isopropyl-6-(2-methyl-oxazol-4-yl)-[1,3,5]triazine-2,4-diamine] | 100 to 1000 | 100 to 1000 | < 100
9 | CC(CO)CNc1nc(Nc2ccnc(C(F)(F)F)c2)nc(-c2cccc(C(F)(F)F)n2)n1 (stereo not drawn) [Compound 552, 2-Methyl-3-[4-(6-trifluoromethyl-pyridin-2-yl)-6-(2-trifluoromethyl-pyridin-4-ylamino)-[1,3,5]triazin-2-ylamino]-propan-1-ol] | 100 to 1000 | 100 to 1000 | < 100
10 | CS(=O)(=O)c1cc(Cl)cc(Nc2nc(NCC3CC3)nc(-c3cccc(C(F)(F)F)n3)n2)c1 [Compound 599, N2-(3-chloro-5-(methylsulfonyl)phenyl)-N4-(cyclopropylmethyl)-6-(6-(trifluoromethyl)pyridin-2-yl)-1,3,5-triazine-2,4-diamine] | < 100 | 100 to 1000 | < 100
11 | COc1ccc(F)c(-c2nc(Nc3cc(F)cc(F)c3)nc(NC(C)C)n2)n1 [Compound 461, N-(3,5-Difluoro-phenyl)-6-(3-fluoro-6-methoxy-pyridin-2-yl)-N′-isopropyl-[1,3,5]triazine-2,4-diamine] | < 100 | < 100 | < 100
12 | CC(C)(C)Nc1nc(Nc2ccnc(C3(C#N)CC3)c2)nc(-c2cccc(C(C)(F)F)n2)n1 [Compound 606, 1-(4-((4-(tert-butylamino)-6-(6-(1,1-difluoroethyl)pyridin-2-yl)-1,3,5-triazin-2-yl)amino)pyridin-2-yl)cyclopropanecarbonitrile] | < 100 | 100 to 1000 | < 100
13 | CCCn1cc(Nc2nc(NC(C)C)nc(-c3cccc(C(F)(F)F)n3)n2)cn1 [Compound 555, N-Isopropyl-N′-(1-propyl-1H-pyrazol-4-yl)-6-(6-trifluoromethyl-pyridin-2-yl)-[1,3,5]triazine-2,4-diamine] | 1000 to 10000 | 100 to 1000 | < 100
14 | CC(C)(C)Nc1nc(Nc2cc(F)cc(S(C)(=O)=O)c2)nc(-c2cccc(C(F)(F)F)n2)n1 [Compound 592, N-tert-Butyl-N′-(3-fluoro-5-methanesulfonyl-phenyl)-6-(6-trifluoromethyl-pyridin-2-yl)-[1,3,5]triazine-2,4-diamine] | 100 to 1000 | 100 to 1000 | < 100
15 | CC(C)Nc1nc(Nc2cccc(C(C)(C)O)c2)nc(-c2ccccc2)n1 [Compound 201, 2-(3-(4-(isopropylamino)-6-phenyl-1,3,5-triazin-2-ylamino)phenyl)propan-2-ol] | 1000 to 10000 | < 100 | 100 to 1000
16 | CC(C)Nc1nc(Nc2ccnc(C3(O)CC3)c2)nc(-c2cccc(C(F)(F)F)n2)n1 [Compound 674, 1-{4-[4-Isopropylamino-6-(6-trifluoromethyl-pyridin-2-yl)-[1,3,5]triazin-2-ylamino]-pyridin-2-yl}-cyclopropanol] | 100 to 1000 | 100 to 1000 | < 100
17 | CC(C)Nc1nc(Nc2ccnc(C(F)(F)F)c2)nc(-c2cccc(CN)c2)n1 [Compound 654, 6-(3-(aminomethyl)phenyl)-N2-isopropyl-N4-(2-(trifluoromethyl)pyridin-4-yl)-1,3,5-triazine-2,4-diamine] | > 10000 | 100 to 1000 | < 100
18 | CC(F)(F)c1cccc(-c2nc(NCC3CC3)nc(Nc3cccc(S(C)(=O)=O)c3)n2)n1 [Compound 611, N2-(cyclopropylmethyl)-6-(6-(1,1-difluoroethyl)pyridin-2-yl)-N4-(3-(methylsulfonyl)phenyl)-1,3,5-triazine-2,4-diamine] | 100 to 1000 | 100 to 1000 | < 100
19 | CC(C)Nc1nc(Nc2cc(F)cc(F)c2)nc(-c2nc(N)ccc2F)n1 [Compound 477, 6-(6-amino-3-fluoropyridin-2-yl)-N2-(3,5-difluorophenyl)-N4-isopropyl-1,3,5-triazine-2,4-diamine] | < 100 | 100 to 1000 | < 100
20 | Cn1cc(Nc2nc(Nc3ccnc(C(F)(F)F)c3)nc(-c3cccc(C(F)(F)F)n3)n2)cn1 [Compound 543, N-(1-Methyl-1H-pyrazol-4-yl)-6-(6-trifluoromethyl-pyridin-2-yl)-N′-(2-trifluoromethyl-pyridin-4-yl)-[1,3,5]triazine-2,4-diamine] | 100 to 1000 | 100 to 1000 | < 100
21 | CC(O)C(C)Nc1nc(Nc2ccnc(C(F)(F)F)c2)nc(-c2cccc(C(F)(F)F)n2)n1 (stereo not drawn) [Compound 548, 3-[4-(6-Trifluoromethyl-pyridin-2-yl)-6-(2-trifluoromethyl-pyridin-4-ylamino)-[1,3,5]triazin-2-ylamino]-butan-2-ol] | 100 to 1000 | 100 to 1000 | < 100
